The record followed here is PubChem BioAssay AID192 (DTP/NCI, 2004).

This experiment has as its system BDF1 mice, B16 melanoma ip, median survival T/C. As to the kind of experiment: NCI In Vivo Anticancer Drug Screen. Data for tumor model B16 Melanoma (intraperitoneal) in B6D2F1 (BDF1) mice. The conditions noted are these: endpoint: median survival time, higher = longer survival. An outline of the steps: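 Compounds were tested in mice carrying transplantable tumors. Survival or tumor size was recorded, and each value is the treated-group measurement (T) divided by that of the vehicle-treated control group (C).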

Where [1] appears, read: dose: 50.0 mg/kg/injection, schedule: Q01DX009 (ip), vehicle: Klucel (hydroxypropylcellulose) (HPC).
Where [2] appears, read: dose: 100.0 mg/kg/injection, schedule: Q01DX009 (ip), vehicle: Klucel (hydroxypropylcellulose) (HPC).
Setting [3] is: dose: 6.25 mg/kg/injection, schedule: Q01DX009 (ip), vehicle: Klucel (hydroxypropylcellulose) (HPC).
The mark [4] stands for this setting: dose: 12.5 mg/kg/injection, schedule: Q01DX009 (ip), vehicle: Klucel (hydroxypropylcellulose) (HPC).
Setting [5] is: dose: 25.0 mg/kg/injection, schedule: Q01DX009 (ip), vehicle: Klucel (hydroxypropylcellulose) (HPC).
Setting [6] is: dose: 0.75 mg/kg/injection, schedule: Q01DX009 (ip), vehicle: saline.
Where [7] appears, read: dose: 1.5 mg/kg/injection, schedule: Q01DX009 (ip), vehicle: saline.
[8] abbreviates: dose: 200.0 mg/kg/injection, schedule: Q01DX009 (ip), vehicle: Klucel (hydroxypropylcellulose) (HPC).
Where [9] appears, read: dose: 400.0 mg/kg/injection, schedule: Q01DX009 (ip), vehicle: Klucel (hydroxypropylcellulose) (HPC).
Where [10] appears, read: dose: 100.0 mg/kg/injection, schedule: Q04DX003 (ip), vehicle: Klucel (hydroxypropylcellulose) (HPC).

SMILES strings stand for the structures. Values joined by “and” are separate entries in the source; they are usually repeats but may differ in a detail not shown here. Equal entries are not always repeated. Toxic doses and inconclusive results are not listed.

Regarding `O=C(NC(CS)C(=O)O)OCc1ccccc1` (stereo not drawn), the T/C is, setting by setting: under setting [1], 94 % of control; under setting [2], 94 % of control.
For `OC1CC2CCC(C1)N2CCCN1c2ccccc2Sc2ccc(Cl)cc21` (stereo not drawn), the T/C (dose: 25.0 mg/kg/injection, schedule: Q04DX003 (ip), vehicle: saline) is 97 % of control; the T/C (dose: 50.0 mg/kg/injection, schedule: Q04DX003 (ip), vehicle: saline) is 90 % of control; the T/C (dose: 100.0 mg/kg/injection, schedule: Q04DX003 (ip), vehicle: saline) was 93 % of control; the T/C (dose: 200.0 mg/kg/injection, schedule: Q04DX003 (ip), vehicle: saline) was 88 % of control.
Consider `O=S(=O)(O)O`, for which the T/C under setting [3] was 111 % of control, the T/C under setting [4] is 106 % of control, the T/C under setting [5] was 99 % of control and the T/C under setting [1] was 93 % of control.
For the compound `CCN1/C(=C/C=C/C=C\C=C\c2sc3ccc4ccccc4c3[n+]2CC)Sc2ccc3ccccc3c21`, the T/C was 87 % of control (dose: 2.5 mg/kg/injection, schedule: Q01DX009 (ip), vehicle: saline with Tween-80); 115 % of control (dose: 10.0 mg/kg/injection, schedule: Q01DX009 (ip), vehicle: saline with Tween-80); 96 % of control (dose: 20.0 mg/kg/injection, schedule: Q01DX009 (ip), vehicle: saline with Tween-80).
For `O=C(N/N=C/c1cccc(S(=O)(=O)O)c1)c1ccncc1`, the T/C (dose: 100.0 mg/kg/injection, schedule: Q01DX009 (ip), vehicle: saline with Tween-80) is 99 % of control; the T/C (dose: 200.0 mg/kg/injection, schedule: Q01DX009 (ip), vehicle: saline with Tween-80) was 100 % of control; the T/C (dose: 400.0 mg/kg/injection, schedule: Q01DX009 (ip), vehicle: saline with Tween-80) is 103 % of control.
Turning to `CC[C@@]1(O)C[C@H](OC2CC(N(C)C)C(OC3CC(O)C(OC4CCC(=O)C(C)O4)C(C)O3)C(C)O2)c2c(cc3c(c2O)C(=O)c2c(O)ccc(O)c2C3=O)[C@H]1C(=O)OC` (stereo partly drawn), the T/C is 119 % of control (dose: 0.25 mg/kg/injection, schedule: Q01DX009 (ip), vehicle: saline); 110 % of control (dose: 0.25 mg/kg/injection, schedule: Q01DX009 (ip), vehicle: water); 102 % of control (dose: 0.37 mg/kg/injection, schedule: Q01DX009 (ip), vehicle: saline); 114 % of control (dose: 0.5 mg/kg/injection, schedule: Q01DX009 (ip), vehicle: saline); 120 % of control (dose: 0.5 mg/kg/injection, schedule: Q01DX009 (ip), vehicle: water); 113 % of control under setting [6]. Also, the T/C (dose: 0.75 mg/kg/injection, schedule: Q04DX003 (ip), vehicle: saline) is 91 % of control; the T/C (dose: 1.0 mg/kg/injection, schedule: Q01DX009 (ip), vehicle: saline) is 157 % of control and 168 % of control; the T/C under setting [7] is 150 % of control; the T/C (dose: 1.5 mg/kg/injection, schedule: Q04DX003 (ip), vehicle: saline) was 91 % of control and 106 % of control; the T/C (dose: 2.0 mg/kg/injection, schedule: Q01DX009 (ip), vehicle: saline) is 107 % of control; the T/C (dose: 3.0 mg/kg/injection, schedule: Q04DX003 (ip), vehicle: saline) was 108 % of control and 115 % of control. In addition, the T/C (dose: 3.6 mg/kg/injection, schedule: Q01DX001 (ip), vehicle: water) is 100 % of control and 102 % of control; the T/C (dose: 6.0 mg/kg/injection, schedule: Q01DX001 (ip), vehicle: water) is 92 % of control and 102 % of control; the T/C (dose: 6.0 mg/kg/injection, schedule: Q04DX003 (ip), vehicle: saline) is 88 % of control and 97 % of control; the T/C (dose: 10.0 mg/kg/injection, schedule: Q01DX001 (ip), vehicle: water) was 101 % of control and 102 % of control; the T/C (dose: 16.7 mg/kg/injection, schedule: Q01DX001 (ip), vehicle: water) was 106 % of control.
`O=C(CCCN1CC=C(n2c(=O)[nH]c3ccccc32)CC1)c1ccc(F)cc1`: the T/C runs as follows: (dose: 3.12 mg/kg/injection, schedule: Q01DX009 (ip), vehicle: Klucel (hydroxypropylcellulose) (HPC)) 92 % of control; under setting [3], 92 % of control and 95 % of control; under setting [4], 98 % of control; under setting [5], 90 % of control and 95 % of control; under setting [1], 97 % of control; under setting [2], 93 % of control. Under setting [8], the T/C was 95 % of control.
Take `O=C(Cc1ccccc1)OCCc1ccccc1`: the T/C was 103 % of control under setting [2], 100 % of control under setting [8] and 93 % of control under setting [9].
For `C[n+]1c(/C=C/c2ccc(O)c3ncccc23)[se]c2ccccc21`, the T/C runs as follows: (dose: 0.38 mg/kg/injection, schedule: Q01DX009 (ip), vehicle: saline) 102 % of control; under setting [6], 109 % of control; under setting [7], 106 % of control; (dose: 3.0 mg/kg/injection, schedule: Q01DX009 (ip), vehicle: saline) 109 % of control and 115 % of control; (dose: 6.0 mg/kg/injection, schedule: Q01DX009 (ip), vehicle: saline) 106 % of control and 124 % of control; (dose: 12.0 mg/kg/injection, schedule: Q01DX009 (ip), vehicle: saline) 115 % of control. Further, the T/C (dose: 24.0 mg/kg/injection, schedule: Q01DX009 (ip), vehicle: saline) was 122 % of control.
For the compound `NC(CNC(=O)C(Cl)Cl)C(=O)O` (stereo not drawn), the T/C is 93 % of control (dose: 6.25 mg/kg/injection, schedule: Q01DX009 (ip), vehicle: water); 105 % of control (dose: 12.5 mg/kg/injection, schedule: Q01DX009 (ip), vehicle: water); 100 % of control (dose: 25.0 mg/kg/injection, schedule: Q01DX009 (ip), vehicle: water); 98 % of control (dose: 50.0 mg/kg/injection, schedule: Q01DX009 (ip), vehicle: water); 89 % of control (dose: 100.0 mg/kg/injection, schedule: Q01DX009 (ip), vehicle: water).
`CCCCCCCCCCCCCCCCCCNC(=O)Nc1ccc(C(C)C)cc1`: the T/C by setting is: (dose: 25.0 mg/kg/injection, schedule: Q04DX003 (ip), vehicle: Klucel (hydroxypropylcellulose) (HPC)) 86 % of control; under setting [10], 86 % of control and 89 % of control.
For the compound `CC(=O)CC(C)=NCC(C)N=C(C)CC(C)=O.c1cc[c]([Sn][c]2ccccc2)cc1` (stereo not drawn), the T/C (dose: 5.0 mg/kg/injection, schedule: Q04DX003 (ip), vehicle: saline with Tween-80) is 119 % of control.
For the compound `NN1C(=O)c2ccc3c4c(ccc(c24)C1=O)CC3`, the T/C is, setting by setting: (dose: 50.0 mg/kg/injection, schedule: Q01DX009 (ip), vehicle: suspension in saline) 104 % of control; (dose: 100.0 mg/kg/injection, schedule: Q01DX009 (ip), vehicle: suspension in saline) 102 % of control; (dose: 200.0 mg/kg/injection, schedule: Q01DX009 (ip), vehicle: suspension in saline) 97 % of control; (dose: 400.0 mg/kg/injection, schedule: Q01DX009 (ip), vehicle: suspension in saline) 102 % of control.
As to `CCC[CH2][Sn-]([CH2]CCC)([CH2]CCC)[O]c1cc(Cl)c(Cl)cc1Cl`, the T/C is 95 % of control (dose: 0.25 mg/kg/injection, schedule: Q01DX009 (ip), vehicle: Klucel (hydroxypropylcellulose) (HPC)); 94 % of control (dose: 0.5 mg/kg/injection, schedule: Q01DX009 (ip), vehicle: Klucel (hydroxypropylcellulose) (HPC)); 96 % of control (dose: 1.0 mg/kg/injection, schedule: Q01DX009 (ip), vehicle: Klucel (hydroxypropylcellulose) (HPC)).
As for `O=[N+]([O-])c1ccc(S(=O)(=O)O)c([N+](=O)[O-])c1.[Ag]`, the T/C is 86 % of control (dose: 12.5 mg/kg/injection, schedule: Q04DX003 (ip), vehicle: DMSO) and 86 % of control (dose: 25.0 mg/kg/injection, schedule: Q04DX003 (ip), vehicle: DMSO).
Regarding `COc1cc2c3c(c1)/C(=N\NC(N)=O)CCN3CCC2`, the T/C is, setting by setting: under setting [10], 97 % of control; (dose: 200.0 mg/kg/injection, schedule: Q04DX003 (ip), vehicle: Klucel (hydroxypropylcellulose) (HPC)) 100 % of control; (dose: 400.0 mg/kg/injection, schedule: Q04DX003 (ip), vehicle: Klucel (hydroxypropylcellulose) (HPC)) 100 % of control.
For the compound `O=C1OCC2C1Cc1cc(O)c(O)cc1C2c1ccc(O)c(O)c1` (stereo not drawn), the T/C under setting [2] was 112 % of control, the T/C under setting [8] was 94 % of control and the T/C under setting [9] is 105 % of control.
Regarding `O=c1oc(-c2ccc3c(c2)OCO3)nc2ccccc12`, the T/C under setting [1] is 98 % of control, the T/C under setting [2] is 99 % of control and the T/C under setting [8] was 91 % of control.
In the case of `O=[N+]([O-])c1ccc(C(O)C=C(C(F)(F)F)C(F)(F)F)cc1` (stereo not drawn), the T/C is, setting by setting: under setting [4], 93 % of control; under setting [5], 89 % of control.
